Values of other authors in patent US20050272031A1, “Viral variants and uses therefor” (MELBOURNE HEALTH, priority 2000, published 2005).

Test system: HBV

## Nc1ncnc2c1ncn2CCOCP(=O)(O)O [Adefovir]
  anti-HBV activity in vitro: effective anti-HBV activity in vitro
